From ChEMBL document CHEMBL5625206, “Design, synthesis, and evaluation of novel pleuromutilin aryl acrylate derivatives as promising broad-spectrum antibiotics especially for combatting multi-drug resistant gram-negative bacteria” (Eur J Med Chem, 2023)
≈ marks a conversion by molar mass, not a printed value. Calls of active or inactive are those of the source. The calls are words filed in the database; no cut-off is given here.

How the values were obtained:
[1] = Toxicity in fasted male Sprague-Dawley rat assessed as relative testis weight ratio at 100 mg/kg, IG measured for 14 days (reference value: 0.993 +/- 0.052); format: organism-based; conditions: in vivo, po, 336 h, time 14 day
[2] = Toxicity in fasted male Sprague-Dawley rat assessed as animal growth rate at 148 mg/kg, IG measured for 14 days (reference value: 46.53 +/- 3.19 g); format: organism-based; conditions: in vivo, po, 336 h, time 14 day
[3] = Toxicity in Sprague-Dawley rat assessed as animal death at 10 to 100 mg/kg, IG measured for 14 days; format: organism-based; conditions: in vivo, po, 336 h, dose 10-100 mg/kg, time 14 day
Pseudomonas aeruginosa = assay: Antibacterial activity against multidrug-resistant Pseudomonas aeruginosa 126 clinical isolate assessed as bacterial growth inhibition incubated for 24 hrs by CLSI based broth microdilution method; format: functional
[4] = system: Mesomycoplasma hyopneumoniae; assay: Anti-mycoplasma activity against Mycoplasma hyopneumoniae J-NCYC10110 assessed as bacterial growth inhibition incubated for 7 days; format: functional; conditions: J-NCYC10110, 168 h, time 7 day
Escherichia coli [5] = assay: Disruption of cell membrane integrity in Escherichia coli ATCC 25922 assessed as wrinkled cell surface at MIC incubated for 4 hrs by FESEM analysis; format: functional, organism-based
[6] = Toxicity in fasted female Sprague-Dawley rat assessed as body weight at 100 mg/kg, IG measured after 7 days (reference value: 188.2 +/- 9.2 g); format: organism-based; conditions: in vivo, po, 168 h, time 7 day
[7] = Toxicity in fasted female Sprague-Dawley rat assessed as relative kidney weight ratio at 148 mg/kg, IG measured for 14 days (reference value: 0.802 +/- 0.031); format: organism-based; conditions: in vivo, po, 336 h, time 14 day
Escherichia coli [8] = assay: Inhibition of biofilm formation of Escherichia coli ATCC 25922 at 8 times MIC incubated for 24 hrs by crystal violet staining based analysis relative to control; format: functional
Escherichia coli [9] = assay: Bactericidal activity against Escherichia coli ATCC 25922 assessed as reduction in colony count at MIC incubated for 24 hrs by time kill assay relative to control; format: functional
[10] = Toxicity in fasted female Sprague-Dawley rat assessed as relative lung weight ratio at 224 mg/kg, IG measured for 14 days (reference value: 0.534 +/- 0025); format: organism-based; conditions: in vivo, po, 336 h, time 14 day
[11] = Toxicity in fasted male Sprague-Dawley rat assessed as body weight at 331 mg/kg, IG measured after 14 days (reference value: 311.2 +/- 13.6 g); format: organism-based; conditions: in vivo, po, 336 h, time 14 day
Staphylococcus aureus [12] = assay: Antibacterial activity against methicillin-resistant Staphylococcus aureus ATCC 33591 infected in neutropenic Kunming mouse model assessed as restoration of infection- induced change in cell morphology in lung at 20 mg/kg, ip measured after 7 days; format: functional, organism-based; conditions: time 7.0 day
[13] = Toxicity in fasted male Sprague-Dawley rat assessed as relative heart weight ratio at 148 mg/kg, IG measured for 14 days (reference value: 0.396 +/- 0.043); format: organism-based; conditions: in vivo, po, 336 h, time 14 day
[14] = Toxicity in fasted female Sprague-Dawley rat assessed as body weight at 148 mg/kg, IG measured on same day (reference value: 165.2 +/- 8.1 g); format: organism-based; conditions: in vivo, po
[15] = Toxicity in fasted female Sprague-Dawley rat assessed as relative ovary weight ratio at 100 mg/kg, IG measured for 14 days (reference value: 0.061 +/- 0.010); format: organism-based; conditions: in vivo, po, 336 h, time 14 day
[16] = Toxicity in fasted male Sprague-Dawley rat assessed as body weight at 100 mg/kg, IG measured after 7 days (reference value: 260.5 +/- 12.7 g); format: organism-based; conditions: in vivo, po, 168 h, time 7 day
[17] = Toxicity in fasted male Sprague-Dawley rat assessed as relative heart weight ratio at 331 mg/kg, IG measured for 14 days (reference value: 0.396 +/- 0.043); format: organism-based; conditions: in vivo, po, 336 h, time 14 day
Staphylococcus aureus [18] = assay: Antibacterial activity against methicillin-resistant Staphylococcus aureus 575 clinical isolate assessed as bacterial growth inhibition incubated for 24 hrs by CLSI based broth microdilution method; format: functional
Klebsiella pneumoniae = assay: Antibacterial activity against multidrug-resistant Klebsiella pneumoniae 893 clinical isolate assessed as bacterial growth inhibition incubated for 24 hrs by CLSI based broth microdilution method; format: functional
[19] = Toxicity in fasted Sprague-Dawley rat assessed as mortality rate at 500 mg/kg, IG measured for 14 days; format: organism-based; conditions: in vivo, po, time 14 day
[20] = Toxicity in fasted female Sprague-Dawley rat assessed as relative heart weight ratio at 224 mg/kg, IG measured for 14 days (reference value: 0.429 +/- 0.016); format: organism-based; conditions: in vivo, po, 336 h, time 14 day
Staphylococcus aureus [21] = assay: Antibacterial activity against methicillin-resistant Staphylococcus aureus ATCC 33591 infected in neutropenic Kunming mouse model assessed as bacterial load reduction in lung at 10 to 20 mg/kg, ip measured after 2 days; format: functional, organism-based; conditions: dose 10-20 mg/kg, time 2.0 day
[22] = Toxicity in fasted female Sprague-Dawley rat assessed as relative heart weight ratio at 148 mg/kg, IG measured for 14 days (reference value: 0.429 +/- 0.016); format: organism-based; conditions: in vivo, po, 336 h, time 14 day
[23] = Toxicity in fasted female Sprague-Dawley rat assessed as body weight at 331 mg/kg, IG measured after 14 days (reference value: 214.3 +/- 9.8 g); format: organism-based; conditions: in vivo, po, 336 h, time 14 day
[24] = Toxicity in fasted male Sprague-Dawley rat assessed as relative lung weight ratio at 100 mg/kg, IG measured for 14 days (reference value: 0.437 +/- 0.064); format: organism-based; conditions: in vivo, po, 336 h, time 14 day
[25] = Toxicity in fasted male Sprague-Dawley rat assessed as body weight at 100 mg/kg, IG measured on same day (reference value: 212.7 +/- 13.2 g); format: organism-based; conditions: in vivo, po
Escherichia coli [26] = assay: Induction of cell damage in Escherichia coli ATCC 25922 assessed as fold increase in extracellular ATP concentration at MIC incubated for 30 mins by fluorescence based analysis relative to control; format: functional; conditions: 0.5 h
[27] = Toxicity in fasted Sprague-Dawley rat assessed as mortality rate at 224 mg/kg, IG measured for 14 days; format: organism-based; conditions: in vivo, po, time 14 day
[28] = Toxicity in fasted male Sprague-Dawley rat assessed as body weight at 500 mg/kg, IG measured on same day (reference value: 212.7 +/- 13.2 g); format: organism-based; conditions: in vivo, po
[29] = Toxicity in fasted female Sprague-Dawley rat assessed as body weight at 224 mg/kg, IG measured after 7 days (reference value: 188.2 +/- 9.2 g); format: organism-based; conditions: in vivo, po, 168 h, time 7 day
[30] = Toxicity in fasted female Sprague-Dawley rat assessed as body weight at 100 mg/kg, IG measured after 14 days (reference value: 214.3 +/- 9.8 g); format: organism-based; conditions: in vivo, po, 336 h, time 14 day
Escherichia coli [31] = assay: Induction of cell damage in Escherichia coli ATCC 25922 assessed as decrease in intracellular ATP concentration at 2 times MIC incubated for 30 mins by fluorescence based analysis relative to control; format: functional; set-up: scale not given: the % may be the effect or the level left; conditions: 0.5 h
Staphylococcus aureus [32] = assay: Antibacterial activity against methicillin-resistant Staphylococcus aureus ATCC 33591 infected in neutropenic Kunming mouse model assessed as bacterial load reduction in kidney at 10 to 20 mg/kg, ip measured after 2 days; format: functional, organism-based; conditions: dose 10-20 mg/kg, time 2.0 day
[33] = Toxicity in fasted male Sprague-Dawley rat assessed as relative lung weight ratio at 500 mg/kg, IG measured for 14 days (reference value: 0.437 +/- 0.064); format: organism-based; conditions: in vivo, po, 336 h, time 14 day
Escherichia coli [34] = assay: Induction of cell damage in Escherichia coli ATCC 25922 assessed as intracellular pH at MIC incubated for 30 mins by fluorescence based analysis (reference value: 6.05 +/- 0.10); format: functional; conditions: 0.5 h

With `C=C[C@]1(C)C[C@@H](OC(=O)COC(=O)/C=C/c2ccc(N(C)C)cc2)[C@]2(C)[C@H](C)CC[C@]3(CCC(=O)[C@H]32)[C@@H](C)[C@@H]1O` the Ratio [1] was 1.048, the Activity [2] was 45.63% and the Activity [3] was “Non-Toxic”. The MIC (Pseudomonas aeruginosa) was 32 µg/mL (≈ 58 µM), the MIC [4] was 8 ng/mL (≈ 0.0145 µM) and the Activity (Escherichia coli [5]) was “Active”. The Activity [6] was 188.2 g, the Ratio [7] was 0.818 and the “inhibition (INH)” value (Escherichia coli [8]) was 97.56%. The Activity (Escherichia coli [9]) was 3.99 log10CFU/ml, the Ratio [10] was 0.531 and the Activity [11] was 304.9 g. For the same compound, the Activity (Staphylococcus aureus [12]) was “Active”, the Ratio [13] was 0.379 and the Activity [14] was 159.8 g. The Ratio [15] was 0.071, the Activity [16] was 265.5 g and the Ratio [17] was 0.374. For the same compound, the MIC (Staphylococcus aureus [18]) was 8 µg/mL (≈ 14.5 µM), the MIC (Klebsiella pneumoniae) was 64 µg/mL (≈ 116 µM) and the mortality at 336 h [19] was 10%. For the same compound, the Ratio [20] was 0.453, the Activity (Staphylococcus aureus [21]) was “Active” and the Ratio [22] was 0.447. The Activity [23] was 218.7 g, the Ratio [24] was 0.44 and the Activity [25] was 215.3 g. For the same compound, the “fold change (FC)” value (Escherichia coli [26]) was 6.12, the mortality at 336 h [27] was 0% and the Activity [28] was 208 g. It also gave an Activity [29] of 191.2 g, an Activity [30] of 214.6 g and an Activity (Escherichia coli [31]) of 67.87%. The Activity (Staphylococcus aureus [32]) was “Active”, the Ratio [33] was 0.399 and the pH (Escherichia coli [34]) was 4.34.
